Results: US11229654B2, “Combination therapy of tetracyclic quinolone analogs for treating cancer” (Senhwa Biosciences, Inc., priority 2015, dated 2022)
Read-outs that look alike come from different tables or passages of the source.

What was measured:
[1] = system: Toledo cell; experiment: Anti-proliferation assay (MTS), Toledo cells; type: cell-based, human; settings: for IC50 / Estimated IC25: single drug treatment, 96 hours post-treatment; for IC50: read-out: Estimated IC50
Experimental: (§1) Three human Lymphoma cell lines Toledo, MC116 and HT were purchased from the Bioresource Collection and Research Center (BCRC, Taiwan). All cells were incubated in a humidified atmosphere containing 5% C02 at 37° C.
(§2) CAL-101, also known as Idelalisib, is a PI3K-delta inhibitor with potential immunomodulating and antineoplastic activities. Anticancer activity of the combination of Compound A and CAL-101 on three human Lymphoma cell lines (Toledo, MC116, HT) was assessed using in vitro cell proliferation assay. Cell proliferation of drug-treated human cancer cells was determined at 96 hours post-treatment using the MTS (Promega) colorimetric assay.
(§3) Corrected absorbance values were obtained by subtracting the average 490 nm absorbance of the control wells (medium only, no cell) from all other absorbance values. Percentage inhibition of cell growth for compound treatment was calculated using this formula: […]
(§4) The sigmoidal dose-response curve is generated by fitting the percentage inhibition value as a function of logarithm of compound concentrations using GraphPad Prism software. IC50 values are defined as the concentration needed for a 50% inhibition of cell growth. […] All data represent the results of triplicate experiments.
(§5) Estimated IC50 and IC25 values were calculated based on non-linear regression of the dose-response curves of the cell proliferation ratio (%) as a function of logarithm of drug concentrations in single treatments.

[2] = system: MC116 cell; experiment: Anti-proliferation assay (MTS), MC116 cells; type: cell-based, human
Experimental: as §1, §2, §3, §4, §5

[3] = system: HT cell; experiment: Anti-proliferation assay (MTS), HT cells; type: cell-based, human
Experimental: as §1, §2, §3, §4, §5

[4] = system: BRCA1 negative (UWB1.289-2945) human ovarian cancer cell line; experiment: CellTiter-Glo cell viability assay, BRCA1 negative ovarian cancer cells; type: cell-based; settings: for Cell toxicity of cytokine by itself: 0-5 ng/mL, BRCA1 negative ovarian cancer cell line; for Effect on cell toxicity in the presence of Compound A: cytokine 0-5 ng/mL together with Compound A
Experimental: (§6) BRCA1 negative (UWB1.289-2945) and BRCA1 positive (UWB1.289) human ovarian cancer cell lines were purchased from the American Type Culture Collection (ATCC). Those cell were incubated in a humidified atmosphere containing 5% C02 at 37° C.
(§7) The anticancer activity of Compound A on BRCA1 negative and BRCA1 positive human ovarian cancer cell lines were also assessed using in vitro cell proliferation assay. Cell proliferation of drug-treated human cancer cell was determined at 72 hours post-treatment using the CellTiter-Glo® Luminescent cell viability assay (Promega). IC50 values are defined as the concentration needed for a 50% inhibition of cell growth and were calculated in GraphPad. The anti-proliferative effects of Compound A alone and in combination with cytokines on these two cell lines are shown in FIGS. 4-6.
(§8) Percentage inhibition of cell growth for compound treatment was calculated using this formula: […]
(§9) The data were processed using built-in excel-macro. Cell viability/proliferation was expressed as […] with respect to the average signal from the untreated control wells of the respective plate. Out-liar values (of the triplicate) were rejected during QC. The processed data were plotted using Graphpad software. Statistical analysis was done using Excel (Microsoft) and Pair-wise comparison of two groups was made using the student's t test. All data represent the results of triplicate experiments.
(§10) Here, two types of cytokines, TNF-α and IFN-γ, were used (0, 0.008, 0.04, 0.2, 1, 5 ng/mL) in response to together with Compound A.

[5] = system: BRCA1 positive (UWB1.289) human ovarian cancer cell line; experiment: CellTiter-Glo cell viability assay, BRCA1 positive ovarian cancer cells; type: cell-based; settings: for Cell toxicity of cytokine by itself: 0-5 ng/mL, BRCA1 positive ovarian cancer cell line
Experimental: as §6, §7, §8, §9, §10

[6] = system: HBCx-39 (BRCA2 wild type) cancer cell line; experiment: Chemokine expression in BRCA2 wild type cancer cells; type: cell-based
From the text: (§11) FIG. 8A-8C show effects of Compound A treatment on chemokine expressions in BRCA2 wild type (WT) and mutant (Mut) PDX-derived breast cancer cells.
(§12) Compound A was applied to both HBCx-39 (BRCA2 wild type) and HBCx-17 (BRCA2 mutant) cancer cell lines in vitro. HBCx-17 is a homologous recombination deficiency tumor cell line having BRCA2 mutation. […] CCL21 and CXCL9 mRNA expression in cancer cells having BRCA2 mutant compared to wild type cancer cells.

[7] = system: HBCx-17 (BRCA2 mutant) cancer cell line; experiment: Chemokine expression in BRCA2 mutant cancer cells; type: cell-based
From the text: as §11, §12

[8] = Homo sapiens, single drug treatment, 96 hours post-treatment, read-out: Estimated IC50
[9] = Homo sapiens, single treatment, read-out: IC50
[10] = single drug treatment, 96 hours post-treatment

Row | Molecule | IC50 ([1]; Homo sapiens) [nM] | Estimated IC25 [1] [nM] | IC50 [2, 8] [µM] | Estimated IC25 [2, 10] [µM] | IC50 [3, 8] [µM] | Estimated IC25 [3, 10] [nM] | Cell toxicity of cytokine by itself [4] | Effect on cell toxicity in the presence of Compound A ([4]; BRCA1 negative cells) | Cell toxicity of cytokine by itself [5] | also measured
1 | CC[C@H](Nc1ncnc2[nH]cnc12)c1nc2cccc(F)c2c(=O)n1-c1ccccc1 [CAL-101] | 76 | 25.3 ± 14.9 | 118 ± 29.6 | 39.2867 ± 9.8712 | 10.1 ± 1.38 | 3357.3 ± 461.0 |  |  |  | inhibition at 0.4 µM ([1]; Homo sapiens, IC50 conc. used: Compound A 50 nM, CAL-101 400 nM): 49.6 ± 1.7%; inhibition at 17.5 µM ([2]; Homo sapiens, IC25 conc. used: Compound A 150 nM, CAL-101 17500 nM): 9.2 ± 3.4%; inhibition at 35 µM ([2]; Homo sapiens, IC50 conc. used: Compound A 450 nM, CAL-101 35000 nM): 70.4 ± 3.1%; IC50 [2, 9]: > 10 µM; inhibition at 2.6667 µM ([3]; Homo sapiens, IC25 conc. used: Compound A 133.3 nM, CAL-101 2666.7 nM): 19.7 ± 4.3%; inhibition at 8 µM ([3]; Homo sapiens, IC50 conc. used: Compound A 400 nM, CAL-101 8000 nM): 37.6 ± 1.5%; IC50 [3, 9]: > 10 µM
2 | Cc1cnc(CNC(=O)c2c(=O)c3ccc(N4CCCN(C)CC4)nc3n3c2sc2ccccc23)cn1 [Compound A, 2-(4-Methyl-[1,4]diazepan-1-yl)-5-oxo-5H-7-thia-1,11b-diaza-benzo[c]fluorene-6-carboxylic acid (5-methyl-pyrazin-2-ylmethyl)-amide] | 45.9 | 15.3 ± 0.8 | 0.723 | 0.241 ± 0.0065 | 0.525 | 175.1 ± 6.6 |  |  |  | Inhibition (%) ([1]; IC50 conc. used: Compound A 50 nM, CAL-101 400 nM): 25.6 ± 2.5%; Inhibition (%) ([2]; IC25 conc. used: Compound A 150 nM, CAL-101 17500 nM): 44.3 ± 5.5%; Inhibition (%) ([2]; IC50 conc. used: Compound A 450 nM, CAL-101 35000 nM): 83.4 ± 1.2%; Inhibition (%) ([3]; IC25 conc. used: Compound A 133.3 nM, CAL-101 2666.7 nM): 15.2 ± 0.9%; Inhibition (%) ([3]; IC50 conc. used: Compound A 400 nM, CAL-101 8000 nM): 41.2 ± 1.9%; IC50 ([4]; Homo sapiens, BRCA1 negative cells, 72 hours post-treatment): 2.34 to 3.78 nM; Maximum toxicity ([5]; BRCA1 positive UWB1.289, highest concentration (100 nM), 72 hours): ≤ 40%; Production of chemokines in tumor cells [6]: capable of inducing the production of several important chemokines; CCL9, CCL21 and CXCL9 mRNA expression ([7]; BRCA2 mutant compared to wild type cancer cells): increased more; Production of chemokines in tumor cells ([7]; HBCx-17 BRCA2 mutant): capable of inducing the production of several important chemokines
3 | IFN-γ: cytokine, Interferon gamma |  |  |  |  |  |  | minimal, but increasing trend of cell toxicity with increasing dose | additive effect | minimal, but increasing trend of cell toxicity with increasing dose | 
4 | TNF-α |  |  |  |  |  |  | minimal, but increasing trend of cell toxicity with increasing dose | additive effect | minimal, but increasing trend of cell toxicity with increasing dose | 
